Laboratory results reported in US8093025B2, “Bacterial vector” (Helmholtz-Zentrum fuer Infektionsforschung GmbH, priority 2004, dated 2012).

Tests used:
PBAD [1] = assay: GFP expression from plasmid pHL238 in bacterial culture after induction, flow cytometry; type: cell-based, Salmonella enterica serovar Typhimurium; conditions: induction by L-arabinose, vector SL7207[pHL238]
Text: As an example for a structural gene, plasmid pHL238 (schematically depicted in FIG. 1) comprising the structural gene for green fluorescent protein (GFP) under the control of PBAD was cloned, further comprising the structural gene for the regulator of PBAD, araC under the control of its own promoter Pc, along with the Ampicillin resistance gene as a selection marker, and a high copy number origin of replication from pUC. Regulatory elements originate from plasmid pBAD18 (Guzman et al., J. Bacteriol. 1995 July; 177(14):4121-30)
This bacterial vector is based on Salmonella enterica serovar Typhimurium, strain SL7207, which is a known attenuated invasive salmonella strain in use for experimental vaccination. The salmonella strain was transformed with plasmid pHL238 by electroporation, transformed colonies were selected on LB-medium agar plates containing streptomycin at 30 μg/mL and ampicillin at 100 μg/mL. The resultant transformed strain was bacterial vector SL7207[pHL238]. […] Results are shown in FIG. 2, the thick line for addition of L-arabinose, the thin line without L-arabinose.

PBAD [2] = assay: GFP expression from bacterial vector within infected J774A1 cells, two colour flow cytometry; type: cell-based, murine; conditions: SL7207[pHL238] in J774A1 cells, L-arabinose 4 mM, 40 mM, 400 mM in medium, 3 hours
Description: The murine macrophage cell line J774A1 was infected with bacterial vector SL7207[pHL238] of Example 1. Before infection, cells were seeded to 2×10^6 cells per well in a 6-well plate in antibiotic-free medium (IMDM with 10% inactivated fetal calf serum, 2 mM glutamine) and grown for one day in a 5% CO2 atmosphere at 37° C. For infection, SL7207[pHL238] were grown from a glycerol stock overnight at 37° C. on a LB plate supplemented with antibiotics, followed by cultivation in liquid LB medium supplemented with antibiotics for approximately 2 hours at 37° C., shaking at 60 rpm. Bacteria were harvested by centrifugation, washed in PBS, resuspended in cell culture medium and added at a ˜MOI of 10. 30 min after start of infection cells were washed twice with PBS before medium containing gentamycin (50 μg/mL) was added to kill extracellular bacteria. […] GFP expressing bacteria in the lysates were monitored by flow cytometry. In order to differentiate fluorescence of GFP expressing bacteria from autofluorescent cell fragments the so-called two colour flow cytometry method was used (Bumann, Infect. Immun. (2001) 69, 4618-4626.). The analytical results are depicted in FIG. 3, with unspecific background fluorescence substracted. […]

PBAD [3] = assay: In vivo GFP expression from bacterial vector re-isolated from spleen of infected mice; set-up: species or system Balb/c mice; conditions: SL7207[pHL238] i.v., L-arabinose i.v. after 2 days, spleen 4 hours later
Description: Balb/c mice were infected intravenously with a dose of ca. 5×10^6 bacteria in PBS of bacterial vector SL7207[pHL238]. After 2 days, different amounts of L-arabinose dissolved in PBS were administered intravenously into mice. 4 hours after L-arabinose administration mice were sacrificed, spleens were removed, homogenized in PBS containing 0.1% Triton X-100 and lysates were analyzed by two colour flow cytometry.

PBAD [4] = assay: In vitro regulation of copy number of plasmid pAEN17 (GFP read-out) in bacterial culture; type: cell-based, Salmonella enterica serovar Typhimurium; conditions: addition of L-arabinose, trfA under PBAD acting on oriV
Text: In the absence of L-arabinose, just one copy of this plasmid per bacterial cell is maintained, regulated by the origin of replication derived from the F plasmid of Escherichia coli. In addition, this plasmid contains the inducible origin of replication of plasmid RK2, namely oriV. The replicase gene trfA, acting on this origin, is placed under the control of PBAD, as an example for a saccharide inducible promoter.
In order to allow for a convenient analysis of plasmid replication, GFP was placed under control of the weak constitutive Pbla promoter derived from the bla gene, also contained on said vector. The recombinant strain SL7207[pAEN17] was grown into logarithmic phase and either no or 0.1% L-Arabinose was added into bacterial cultures.

PBAD [5] = assay: Induction of plasmid replication in bacterial vector within infected J774A1 cells (GFP read-out); type: cell-based, murine; conditions: SL7207[pAEN17] in J774A1 cells, L-arabinose 4 mM, 40 mM, 400 mM, 3 hours
Description: J774A1 cells, a murine macrophage cell line, were infected with strain SL7207[pAEN17], as described in Example 2. 4 hours after infection, different amounts of L-arabinose were added into individual wells of infected J774A1 cells up to a concentration in the medium of 4 mM, 40 mM and 400 mM, respectively. 3 hours after addition of L-arabinose cells were treated with 0.25% Triton X-100. Bacteria in the lysates were monitored for GFP expression by flow cytometry as described in Example 2. The analytical results are depicted in FIG. 7, with unspecific background fluorescence substracted.

[6] = system: SL7207 bearing the plasmid of FIG. 8; assay: Induced lysis (gene E) of bacterial vector within infected J774A1 cells, CFU; type: cell-based, Salmonella enterica serovar Typhimurium; conditions: SL7207 with gene E plasmid pHL241, induction period 3 hours
Description: The plasmid pHL241 shown in FIG. 8 was derived from plasmid pHL238 shown in FIG. 1 by exchanging gene gfp against gene E.
For infection, J774A1 cells were cultured and infected with SL7207 bearing the plasmid of FIG. 8 according to the procedure of Example 2. Induction was by addition of L-arabinose to the final concentrations in cell culture medium as given in FIG. 9, for an induction period of 3 hours. Following induction, cells were harvested and lysed by addition of Triton X-100 to a concentration of 1 g/L. For re-isolation, intracellular bacterial vectors were plated on LB-agar containing ampicillin for quantification of viable bacteria as colony forming units (CFU).

CT26 tumor [7] = assay: In vivo colonization and luciferase transgene induction in CT26 tumor-bearing mice; set-up: species or system Balb/c mice
Text: As a representative for a transgene, the luciferase gene from the firefly Photinus pyralis was used as the reporter gene. As the saccharide inducible promoter element, PBAD from the L-arabinose operon of E. coli was functionally linked to the luciferase gene, the promoter element further being in conjunction with the structural gene for its regulator protein araC under the control of its natural own promoter (PC). The bacterial vector was generated by transforming Salmonella enterica serovar Typhimurium, vaccine strain SL7207, with the plasmid containing the transgene under the control of the saccharide inducible promoter by electroporation.
As an example for an animal having a tumor, Balb/c mice were subcutaneously inoculated abdominally with 10^6 cells of the colon adenocarcinoma cell line CT26. After this tumor generation treatment, mice bearing tumors of approximately 400-600 mm^3 were intravenously injected with 5×10^6 bacteria of the above bacterial vector (SL7207[pHL259]), representing the first component of the pharmaceutical combination, suspended in phosphate buffered saline (PBS). Three days post infection, L-arabinose as the appropriate inductor saccharide, representing the second component of the pharmaceutical combination, was administered intraperitoneally, dissolved in PBS. Subsequently, mice were sacrificed and the tumors, spleens and livers dissected, then transferred into 3 mL of sterile, ice-cold PBS containing 0.1% (vol/vol) Triton X-100.
Tissues were disrupted in a Polytron PG3000 homogenizer (Kinematica, Littau, Switzerland). Homogenates were diluted in PBS and streaked on medium plates with selective antibiotic (ampicillin). Colonies were counted after incubation of plates. As a result, the number of bacteria in respective tissues could be calculated by counting the resulting colony forming units (cfu) for each organ.
The induction of the transgene was determined by measurement of the reporter gene (luciferase) activity from tissue homogenates after dilution (1:1) in 2× luciferase assay lysis buffer (50 mM tris-HCl, 4 mM DTT, 20% (vol/vol) glycerol, 2% (vol/vol) Triton X-100, 2 mg/mL lysozyme, pH 8.3), incubation at 25° C. for 10 minutes, centrifugation at 3,000×g for 3 minutes, 10 μL supernatant were added to 100 mL LARII reagent of the luciferase assay system according to the manufacturer's instructions (Promega, Mannheim, Germany). Luminescence intensity was measured spectrometrically in a luminometer (Lumat LB9507, Berthold, Pforzheim, Germany). Dilution was taken into account when calculating RLU per organ.

CT26 tumor [8] = assay: Vector with gene E under Prha and lux under PBAD plus TNFalpha in CT26 tumor mice; type: in vivo, Balb/c mice
Text: As an example for multifunctional bacterial vectors for use in the pharmaceutical combination according to the invention, vaccine strain SL7207 was genetically manipulated by Tn7 mediated chromosomal integration of the mini-transposon of a plasmid pHL260b, modified from pHL260a by replacing the PBAD promoter by the L-rhamnose inducible promoter (Prha), derived from plasmid pJOE2702 (Stumpp et al., Biospektrum 6, 33-36(2000)). This strain chromosomally contains at least one copy of gene E of bacteriophage phiX174 under the control of the rhamnose inducible promoter (Prha). The resultant strain was then transformed with plasmid pTNFa-lux, containing the bioluminescence operon of Photorhabdus luminescence under control of the PBAD promoter in combination with the mouse TNFalpha gene under the control of the constitutive promoter from beta-lactamase (Pbla).
As described in Example 8, Balb/c mice bearing a CT26 tumor were administered 5×10^6 bacterial vector, suspended in PBS by intravenous administration. […] Upon administration of 120 mg L-arabinose dissolved in PBS intraperitoneally, to the same mice 1 day later, as well as on consecutive days, colonization of tumor tissue by bacterial vectors was monitored by spectrometry, more specifically luminometric analysis of anesthesized mice using a CCD camera.

Compound	GFP fluorescence relative to background without induction (PBAD [1])	fluorescence intensity of GFP (PBAD [2])	expression of GFP by bacteria recovered from infected animals (PBAD [3])	copy number of the plasmid pAEN17 (PBAD [4])	fluorescence intensity of GFP (PBAD [5])	number of viable bacterial vectors inside infected J774A1 cells (CFU) [6]	induction of transgene expression (luciferase, RLU) (CT26 tumor [7]; L-arabinose i.p. three days post infection, tumor, spleen, liver)	transgene activity in spleen and liver (CT26 tumor [7]; spleen and liver)	time of main transgene activity past administration of the inductor saccharide (CT26 tumor [7]; tumor tissue)	absolute transgene activity, comparison of tissues (CT26 tumor [7]; tumor, spleen, liver)	bioluminescence from lux operon under PBAD (CT26 tumor [8]; 120 mg L-arabinose i.p., repeated administration after L-rhamnose)	lysis of bacterial vector and release of TNFalpha (CT26 tumor [8]; 120 mg L-rhamnose i.p. 3 days after vector i.v.)
O=C[C@H](O)[C@@H](O)[C@@H](O)CO [L-arabinose]	more than two orders above the background fluorescence	increases with increasing concentrations of L-arabinose	induced by L-Arabinose in a dose-dependent manner	increased copy number	increases with increasing concentrations of L-arabinose	drastically decreases the number of viable bacterial vectors	induces transgene expression for all tissues tested	very low to about background levels	about 6 hours	greatest in tumor tissue	bioluminescence	
C[C@H](O)[C@H](O)[C@@H](O)[C@@H](O)C=O [L-rhamnose]												lysis of bacterial vector and release of TNFalpha was observed
